Measured values published in the NIST ThermoML archive (doi:10.1016/j.jct.2011.02.008).

Experiment: xn = mol fraction of the nth substance listed
Settings: Liquid, Vibrating tube method

COC(=O)c1ccccc1 [methyl benzoate] + C1CCCCC1
mass density [kg/m3]
Settings	x1 = 0.0985	x1 = 0.1963	x1 = 0.2939	x1 = 0.3942	x1 = 0.4955	x1 = 0.596	x1 = 0.6975	x1 = 0.7993	x1 = 0.8982
318.15 K, 30000 kPa	–	–	873.9	905.1	936.2	967.6	997.8	1026.6	1054.7
318.15 K, 35000 kPa	815.3	846.3	877.5	908.6	939.6	971	1001	1029.7	1057.8
318.15 K, 40000 kPa	818.8	849.9	880.9	912	942.9	974.2	1004.1	1032.7	1060.7
318.15 K, 45000 kPa	822.2	853.2	884.3	915.2	946.1	977.3	1007.1	1035.7	1063.6
318.15 K, 50000 kPa	825.5	856.5	887.5	918.4	949.2	980.3	1010.1	1038.6	1066.5
318.15 K, 55000 kPa	828.7	859.7	890.6	921.5	952.3	983.3	1013	1041.5	1069.3
318.15 K, 60000 kPa	831.6	862.5	893.4	924.3	955.1	986	1015.7	1044.1	1071.8
328.15 K, 100 kPa	776	807.7	839.6	871.6	903.6	935.6	966.7	996.3	1025.1
328.15 K, 1000 kPa	777	808.7	840.5	872.5	904.4	936.4	967.4	997	1025.8
328.15 K, 5000 kPa	781.2	812.7	844.5	876.3	908.1	939.9	970.6	1000.2	1028.9
328.15 K, 10000 kPa	786.2	817.6	849.2	880.4	912.3	944.1	974.8	1004	1032.6
328.15 K, 15000 kPa	790.7	822.1	853.6	885.1	916.5	948.1	978.6	1007.7	1036.2
328.15 K, 20000 kPa	795.2	826.5	857.8	889.2	920.5	951.9	982.3	1011.3	1039.7
328.15 K, 25000 kPa	799.4	830.6	861.8	893.1	924.3	955.6	985.9	1014.7	1043
328.15 K, 30000 kPa	803.4	834.5	865.7	896.9	928	959.2	989.4	1018.1	1046.3
328.15 K, 35000 kPa	807.3	838.3	869.4	900.5	931.5	962.7	992.7	1021.4	1049.4
328.15 K, 40000 kPa	811	842	873	904.1	935	966	996	1024.5	1052.5
328.15 K, 45000 kPa	814.6	845.5	876.5	907.5	938.3	969.3	999.1	1027.6	1055.5
328.15 K, 50000 kPa	818	848.9	879.8	910.8	941.5	972.5	1002.2	1030.7	1058.5
328.15 K, 55000 kPa	821.3	852.2	883.1	914	944.7	975.6	1005.3	1033.6	1061.4
328.15 K, 60000 kPa	824.3	855.5	886.1	916.9	947.6	978.3	1008	1036.3	1064.2
338.15 K, 100 kPa	766.2	798	829.9	861.9	893.9	926	957	986.6	1015.6
338.15 K, 1000 kPa	767.2	799	830.9	862.8	894.7	926.8	957.8	987.4	1016.3
338.15 K, 5000 kPa	771.8	803.4	835.1	866.9	898.7	930.5	961.3	990.8	1019.6
338.15 K, 10000 kPa	777	808.5	840	871.6	903.2	934.9	965.6	994.9	1023.5
338.15 K, 15000 kPa	782	813.3	844.7	876.2	907.6	939.2	969.6	998.8	1027.2
338.15 K, 20000 kPa	786.7	817.9	849.2	880.5	911.8	943.2	973.5	1002.5	1030.8
338.15 K, 25000 kPa	791.1	822.3	853.4	884.6	915.8	946.9	977.3	1006.2	1034.4
338.15 K, 30000 kPa	795.4	826.4	857.5	888.6	919.6	950.8	980.9	1009.7	1037.8
338.15 K, 35000 kPa	799.4	830.4	861.4	892.4	923.4	954.5	984.4	1013.1	1040.9
338.15 K, 40000 kPa	803.3	834.2	865.2	896.1	927	958	987.8	1016.4	1044.3
338.15 K, 45000 kPa	807	837.9	868.8	899.6	930.4	–	–	–	–
